Columns and labels:
Assay in all cases: relative viability (nuclei count vs DMSO), 5 days (fraction); higher = more cells survive
[1] = compound: NS(=O)(=O)OC[C@@H]1C[C@@H](n2ccc3c(N[C@H]4CCc5ccccc54)ncnc32)C[C@@H]1O [MLN4924] + Cc1cc(Nc2cc(N3CCN(C)CC3)nc(Sc3ccc(NC(=O)C4CC4)cc3)n2)n[nH]1 [Tozasertib] (partner 0.1 µM)
Summary of the method: (§1)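 A single step with final 0.05% Triton X-100, 1% formaldehyde and 1 ug/ml Hoechst fixed the cells and stained nuclei 5 days after treatment. Lung cancer cell lines in 1536-well plates had been treated by pin tool the day after seeding with one drug alone or a fixed anchor-drug dose plus five library-drug doses (not always all listed) in √10 steps, and nuclei were counted on 4× images. Relative viability is the ratio of nuclei in treated wells to nuclei in vehicle wells, taken as the median of duplicate plates.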

[2] = compound: NS(=O)(=O)OC[C@@H]1C[C@@H](n2ccc3c(N[C@H]4CCc5ccccc54)ncnc32)C[C@@H]1O [MLN4924] + Cc1nc(Nc2ncc(C(=O)Nc3c(C)cccc3Cl)s2)cc(N2CCN(CCO)CC2)n1 [Dasatinib] (partner 0.075 µM)
Summary of the method: as §1

[3] = compound: CC[C@H](C)N1C=C(C2=C(C=C(C=C21)C3=CN=C(C=C3)N4CCNCC4)C(=O)NCC5=C(C=C(NC5=O)C)C)C [GSK126] + Cc1nc(NC(=O)N2CCC[C@H]2C(N)=O)sc1-c1ccnc(C(C)(C)C(F)(F)F)c1 [Alpelisib] (partner 2 µM)
Summary of the method: as §1

[4] = compound: CC[C@H](C)N1C=C(C2=C(C=C(C=C21)C3=CN=C(C=C3)N4CCNCC4)C(=O)NCC5=C(C=C(NC5=O)C)C)C [GSK126] + O=C(CCCCCCC(=O)Nc1ccccc1)NO [Vorinostat] (partner 1 µM)
Summary of the method: as §1

Cell Line | relative viability ([1]; first compound 0.04 µM) | relative viability ([1]; first compound 0.1265 µM) | relative viability ([1]; first compound 0.4 µM) | relative viability ([1]; first compound 1.265 µM) | relative viability ([1]; first compound 4 µM) | relative viability ([2]; first compound 0.04 µM) | relative viability ([2]; first compound 0.1265 µM) | relative viability ([2]; first compound 0.4 µM) | relative viability ([2]; first compound 1.265 µM) | relative viability ([2]; first compound 4 µM) | relative viability ([3]; first compound 0.08 µM) | relative viability ([3]; first compound 0.253 µM) | relative viability ([3]; first compound 0.8 µM) | relative viability ([3]; first compound 2.53 µM) | relative viability ([3]; first compound 8 µM) | relative viability ([4]; first compound 0.08 µM) | relative viability ([4]; first compound 0.253 µM) | relative viability ([4]; first compound 0.8 µM) | relative viability ([4]; first compound 2.53 µM) | relative viability ([4]; first compound 8 µM)
SK-MES-1 | 0.773 | 0.682 | 0.33 | 0.157 | 0.189 | 0.584 | 0.626 | 0.256 | 0.121 | 0.147 | 0.901 | 0.878 | 0.92 | 0.868 | 0.996 | 1.12 | 1.19 | 1.04 | 1.04 | 1.13
NCI-H1648 | 0.417 | 0.164 | 0.247 | 0.203 | 0.279 | – | – | – | – | – | – | – | – | – | – | 0.496 | 0.401 | 0.467 | 0.5 | 0.548
PC-14 | 0.592 | 0.569 | 0.605 | 0.177 | 0.0608 | 0.304 | 0.294 | 0.195 | 0.0356 | 0.0313 | 0.946 | 0.993 | 0.899 | 0.826 | 0.852 | 0.768 | 0.732 | 0.623 | 0.745 | 0.692
NCI-H1651 | 0.759 | 0.782 | 0.524 | 0.321 | 0.133 | 0.411 | 0.473 | 0.431 | 0.167 | 0.116 | 1.13 | 0.946 | 0.933 | 0.938 | 0.936 | 0.614 | 0.548 | 0.545 | 0.6 | 0.55
HOP-62 | 0.359 | 0.198 | 0.0852 | 0.049 | 0.0903 | 0.887 | 0.742 | 0.427 | 0.0794 | 0.076 | 0.998 | 1.14 | 0.974 | 0.727 | 0.917 | 0.725 | 0.542 | 0.633 | 0.646 | 0.665
HCC-44 | 0.816 | 0.471 | 0.186 | 0.231 | 0.272 | – | – | – | – | – | 0.884 | 0.841 | 0.813 | 0.81 | 0.859 | 1.15 | 1.15 | 1.05 | 1.08 | 1.15
HCC-15 | 0.266 | 0.167 | 0.129 | 0.0769 | 0.0852 | 0.498 | 0.183 | 0.132 | 0.0695 | 0.0802 | 0.915 | 0.88 | 0.816 | 0.858 | 0.759 | 0.887 | 0.756 | 0.843 | 0.816 | 0.714
NCI-H460 | 0.464 | 0.484 | 0.421 | 0.228 | 0.0266 | 0.495 | 0.657 | 0.849 | 0.377 | 0.0538 | 0.673 | 0.486 | 0.369 | 0.504 | 0.431 | 0.89 | 0.718 | 0.75 | 0.699 | 0.656
NCI-H1299 | – | – | – | – | – | – | – | – | – | – | 1.12 | 1 | 1.01 | 0.994 | 1.18 | – | – | – | – | –
SK-LU-1 | 0.356 | 0.295 | 0.171 | 0.0898 | 0.111 | 0.217 | 0.249 | 0.12 | 0.117 | 0.141 | 1.01 | 1.11 | 1.2 | 1.18 | 1.03 | 0.852 | 0.684 | 0.781 | 0.776 | 0.905
COR-L 105 | 0.343 | 0.331 | 0.323 | 0.247 | 0.241 | 0.398 | 0.289 | 0.33 | 0.222 | 0.225 | 0.984 | 1.03 | 0.927 | 1.02 | 0.966 | 0.963 | 0.828 | 0.639 | 0.826 | 0.68
COR-L23 | 0.207 | 0.205 | 0.181 | 0.122 | 0.0744 | 0.487 | 0.617 | 0.507 | 0.154 | 0.101 | 0.814 | 0.826 | 0.792 | 0.755 | 0.647 | 0.56 | 0.42 | 0.461 | 0.453 | 0.407
NCI-H3122 | 0.347 | 0.226 | 0.113 | 0.0963 | 0.103 | 0.148 | 0.487 | 0.147 | 0.056 | 0.071 | 0.827 | 0.854 | 0.767 | 0.768 | 0.829 | 1.14 | 1.15 | 0.933 | 1.06 | 1.18
NCI-H23 | 0.367 | 0.388 | 0.235 | 0.176 | 0.141 | 0.722 | 0.785 | 0.681 | 0.335 | 0.208 | 0.74 | 0.628 | 0.565 | 0.779 | 0.76 | 0.936 | 0.627 | 0.639 | 0.632 | 0.527
PC-3 [JPC-3] | 0.903 | 0.785 | 0.652 | 0.366 | 0.275 | 1.04 | 1.09 | 0.897 | 0.36 | 0.27 | 1.04 | 1.13 | 1.05 | 1.02 | 1.07 | 0.949 | 0.82 | 0.806 | 1 | 0.825
